Source: publication PMC6268079, “Synthesis and Biological Evaluation of 2-(3-Fluoro-4-nitro phenoxy)-N-phenylacetamide Derivatives as Novel Potential Affordable Antitubercular Agents” (Molecules, 2012)
In brackets after ≈: the same amount, converted by molar mass.

How the values were obtained:
[1] = tested on: Rifampicin-resistant TB 261; experiment: microbe, parasite or virus in culture; format: cell-based; conditions: Mycobacterium tuberculosis
[2] = tested on: Isoniazide-resistant TB 242; experiment: microbe, parasite or virus in culture; format: cell-based; conditions: Mycobacterium tuberculosis

SMILES | MIC [1] | MIC [2]
CO[C@H]1/C=C/O[C@@]2(C)Oc3c(C)c(O)c4c(O)c(c(/C=N/N5CCN(C)CC5)c(O)c4c3C2=O)NC(=O)/C(C)=C\C=C\[C@H](C)[C@H](O)[C@@H](C)[C@@H](O)[C@@H](C)[C@H](OC(C)=O)[C@@H]1C [Rifampicin] | > 32 µg/mL | ≤ 0.25 µg/mL
COC(=O)COc1ccc(NC(=O)COc2ccc(C)cc2C)cc1 [I, methyl 2-(4-(2-(2,4-dimethylphenoxy)acetamido)phenoxy)acetate] | 4 µg/mL (≈ 11.6 µM) | 16 µg/mL (≈ 46.6 µM)
NNC(=O)c1ccncc1 [Isoniazide] | 0.125 µg/mL (≈ 0.911 µM) | 0.5 µg/mL (≈ 3.65 µM)
O=C(COc1ccc([N+](=O)[O-])c(F)c1)Nc1ccccc1[N+](=O)[O-] [Compound 3m, 2-(3-Fluoro-4-nitrophenoxy)-N-(2-nitrophenyl)acetamide] | 4 µg/mL (≈ 11.9 µM) | 32 µg/mL (≈ 95.5 µM)
